# Results published in patent US20240148040A1, “METHODS OF REDUCING EXERCISE-INDUCED INJURY OR ENHANCING MUSCLE RECOVERY AFTER EXERCISE” (intrinsic Medicine, Inc., priority 2020, published 2024).
# Test system: CEBPB expression in LPS-stimulated THP-1 cells
# Test: CEBPB expression in nascent RNAs of LPS-stimulated THP-1 cells (nascent RNA sequencing)
# Assay type: cell-based
# Settings: 10 ng/mL LPS and 250 μM 2′FL, CEBPB enhanced and upregulated
# Method: THP-1 Cells were treated with 10 ng/mL LPS or 10 ng/mL LPS and 250 μM 2′F and extracted for nascent RNAs at 30 min and 24 hours. The nascent RNAs were sequenced and analyzed as described in Azofeifa et al. (2018), Genome Res. 28: 334-344; the contents of which are expressly incorporated by reference herein.
compound,measurement,setting,value
"CC1O[C@@H](OC2[C@H](O[C@H]3C(O)C(O)C(O)O[C@H]3CO)OC(CO)[C@H](O)[C@@H]2O)C(O)[C@@H](O)[C@@H]1O (some centres unmarked) [2′FL, 2′-fucosyllactose]","CEBPB maximum enrichment score (nascent RNAs, 2′FL+LPS treated cells versus LPS alone)",30 min,40
same,"CEBPB maximum enrichment score (nascent RNAs, 2′FL+LPS treated cells versus LPS alone)",24 hours,20
